According to patent US20240076630A1, “METHODS FOR GENERATING NEURAL TISSUE AND USES THEREOF” (priority 2015, published 2024):

System: human brain organoids
Type: cell-based

2,3-Dioxo-6-nitro-1,2,3,4-tetrahydrobenzo[f]quinoxaline-7-sulfonamide disodium salt [NBQX]
mean spiking rate (NBQX 20 μM, n=9 units, p<0.05, two-tailed Wilcoxon signed rank test, FIG. 4D bottom panel legend): attenuated | NBQX-treated median firing rate (bath application of 20 μM NBQX, 95% CI 0.0023 to 0.2048, n=12 units from 4 organoids): 0.0733 Hz | reduction of the median mean firing rate (bath application of 20 μM NBQX, vs baseline median firing rate 0.3800 Hz, p=0.0005, n=12 units from 4 organoids): 81%

Tetrodotoxin citrate [TTX]
spike rate: suppressed
